The text below walks through data of ChEMBL document CHEMBL1201862, “PubChem BioAssay data set” (2004).

What all share (assay): NCI tumour cell line growth inhibition, 48 h
For experiment [1], the system named is NCI-H226.
The subject of experiment [2] is SNB-75.
For experiment [3], the system named is CAKI-1.
Experiment [4] concerns U-251.
Experiment [5] relates to SW-620.
The subject of experiment [6] is RPMI-8226.
For experiment [7], the system named is SF-539.
Experiment [8] relates to OVCAR-3.
In experiment [9] the test system is UACC-62.
In experiment [10] the test system is OVCAR-5.
Experiment [11] concerns A549.
Experiment [12] relates to UACC-257.
Experiment [13] has as its system SK-OV-3.
For experiment [14], the system named is Malme-3M.
For experiment [15], the system named is SK-MEL-28.
Experiment [16] relates to SR.
Experiment [17] relates to HL-60.

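Grown in 96-well plates, cells were treated for 48 hours with each compound at five concentrations. Insufficient inhibition: endpoint recorded as highest concentration tested. Abbreviation: GI50, concentration required for 50% inhibition of growth.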 The source made the active and inactive calls. No stated cut-off is given here; in the data, active = GI50 up to about 1.1 µM and inactive = higher.

Consider `O=c1cc(O)cc2n1CCC2`, for which the GI50 in [1], in experiment [2], in [3], in experiment [4], in [5] and in experiment [6] was > 100 µM (inactive) each time. Besides, the GI50 in [7], in [8], in [9], in [10], in experiment [11] and in [12] was > 100 µM (inactive) in each case. The GI50 in [13] and in experiment [14] was > 100 µM (inactive) each time.
Turning to `COc1ccc(/C(=N\NC(=O)C(=O)NN)C(c2ccc(OC)cc2)C2(O)C(=O)Nc3ccccc32)cc1` (centres undefined), the GI50 in [1] is > 100 µM (inactive); in [2], > 100 µM (inactive); in experiment [3], > 100 µM (inactive); in experiment [4] it was > 100 µM (inactive); in [5], > 100 µM (inactive); in experiment [6] it was 69.7 µM (inactive). The GI50 in experiment [7] is 80.7 µM (inactive); in experiment [15] it was > 100 µM (inactive); in experiment [8] it was > 100 µM (inactive); in [9], 45.3 µM (inactive); in [16], 46 µM (inactive); in [10], > 100 µM (inactive). Besides, the GI50 was 62.4 µM (inactive) in [11], > 100 µM (inactive) in [13] and 42.7 µM (inactive) in [14].
`Cc1ccccc1C(=O)Oc1ccc(O)cc1`: the GI50 in experiment [1], in experiment [2], in [3], in experiment [4], in experiment [5] and in [6] was > 100 µM (inactive) throughout. For the same compound, the GI50 in experiment [7], in [8], in experiment [9], in experiment [10], in [11] and in [12] was > 100 µM (inactive) in each case. The GI50 in experiment [17], in experiment [13] and in experiment [14] was > 100 µM (inactive) in each case.
With `CCOC(=O)C(=O)Nc1cccc(Cl)c1C`, the GI50 in experiment [1], in [3], in experiment [4], in experiment [5], in experiment [6] and in experiment [7] was > 100 µM (inactive) throughout. Also, the GI50 in [15], in experiment [8], in experiment [9], in experiment [10], in experiment [11] and in experiment [12] was > 100 µM (inactive) throughout. In addition, the GI50 in experiment [17], in [13] and in experiment [14] was > 100 µM (inactive) throughout.
Regarding `Cn1c(=O)nc2n(-c3ccc(Cl)cc3)c3ccc(Cl)cc3nc-2c1=O`, the GI50 was 11.5 µM (inactive) in [1]; 1.46 µM (inactive) in experiment [2]; 4.45 µM (inactive) in experiment [3]; 1.98 µM (inactive) in experiment [4]; 4.44 µM (inactive) in experiment [5]; 9.23 µM (inactive) in [15]. In addition, the GI50 in experiment [8] was 2.57 µM (inactive); in [9], 1.07 µM (active); in experiment [16] it was 7.62 µM (inactive); in experiment [10] it was 16.1 µM (inactive); in [11] it was 5.75 µM (inactive); in experiment [12], 3.4 µM (inactive). Besides, the GI50 in experiment [17] was 2.68 µM (inactive); in [13], 88.7 µM (inactive).
Regarding `COc1cc2ccc3c4cc(OC)c(OC)cc4c[n+](C)c3c2cc1O`, the GI50 was 9.16 µM (inactive) in experiment [1]; 15.2 µM (inactive) in [2]; > 100 µM (inactive) in experiment [3]; 6.37 µM (inactive) in experiment [4]; > 100 µM (inactive) in [5]; > 100 µM (inactive) in experiment [6]. Further, the GI50 in [7] was > 100 µM (inactive); in experiment [15], > 100 µM (inactive); in [8], 67.5 µM (inactive); in experiment [9] it was > 100 µM (inactive); in [10] it was > 100 µM (inactive); in experiment [11] it was > 100 µM (inactive). Moreover, the GI50 in [12], in [17], in experiment [13] and in experiment [14] was > 100 µM (inactive) each time.
Consider `CCOC(=O)C(C(=O)c1ccccc1)=C1NCCN1`, for which the GI50 in experiment [1], in experiment [3], in experiment [4], in experiment [5], in [6] and in [7] was > 100 µM (inactive) throughout. Further, the GI50 in [15], in [8], in [9], in experiment [16], in experiment [10] and in experiment [11] was > 100 µM (inactive) each time. Moreover, the GI50 in experiment [12], in [17] and in experiment [14] was > 100 µM (inactive) in each case.
In the case of `COS(=O)(=O)OCCC(NC(=O)OCc1ccccc1)C(=O)OCc1ccccc1` (centres undefined), the GI50 was > 100 µM (inactive) in experiment [1]; 71.6 µM (inactive) in experiment [2]; > 100 µM (inactive) in experiment [3]; > 100 µM (inactive) in experiment [4]; > 100 µM (inactive) in experiment [5]; > 100 µM (inactive) in experiment [6]. Also, the GI50 in experiment [7], in experiment [15], in experiment [8], in experiment [9], in experiment [10] and in experiment [11] was > 100 µM (inactive) in each case. The GI50 was > 100 µM (inactive) in [12], 53.3 µM (inactive) in [17], > 100 µM (inactive) in experiment [13] and > 100 µM (inactive) in experiment [14].
`O=C(N/N=C/c1cccc(O)c1O)N/N=C/c1cccc(O)c1O`: the GI50 is 23.4 µM (inactive) in [1]; 8.77 µM (inactive) in experiment [2]; 12.3 µM (inactive) in experiment [4]; 17.5 µM (inactive) in experiment [5]; 19.8 µM (inactive) in experiment [6]; 4.92 µM (inactive) in experiment [7]. For the same compound, the GI50 in experiment [15] is 20.1 µM (inactive); in [8] it was 2.51 µM (inactive); in experiment [9], 11.9 µM (inactive); in experiment [10] it was 22.2 µM (inactive); in experiment [11] it was 35.9 µM (inactive); in [12] it was 19.9 µM (inactive). Moreover, the GI50 is > 100 µM (inactive) in [13] and 22.4 µM (inactive) in experiment [14].
In the case of `O=c1cc(-c2ccccc2)c2cc3c(=O)ccoc3cc2o1`, the GI50 in experiment [1] was 79.1 µM (inactive); in [2] it was 14 µM (inactive); in [4], > 100 µM (inactive); in experiment [5] it was > 100 µM (inactive); in experiment [6], > 100 µM (inactive); in experiment [7], > 100 µM (inactive). Further, the GI50 in [15] is > 100 µM (inactive); in experiment [8], > 100 µM (inactive); in experiment [9], 62.2 µM (inactive); in experiment [16] it was > 100 µM (inactive); in experiment [11] it was > 100 µM (inactive); in [12], > 100 µM (inactive). Further, the GI50 was > 100 µM (inactive) in experiment [17] and 81.5 µM (inactive) in experiment [14].
Turning to `COc1cc(-c2ccc(NC(=O)SCCC(=O)O)cc2OC)ccc1NC(=O)SCCC(=O)O`, the GI50 was > 100 µM (inactive) in experiment [1]; 65.3 µM (inactive) in [2]; > 100 µM (inactive) in [3]; > 100 µM (inactive) in [4]; > 100 µM (inactive) in experiment [5]; > 100 µM (inactive) in experiment [6]. The GI50 in experiment [7], in experiment [15], in experiment [8], in [16], in [10] and in [11] was > 100 µM (inactive) throughout. The GI50 is > 100 µM (inactive) in experiment [12], 24.9 µM (inactive) in [17] and > 100 µM (inactive) in [14].
For `CCCCNC(=O)NNC(=O)c1cc(/C=C/c2cccc([N+](=O)[O-])c2)ncn1`, the GI50 in experiment [1] is > 100 µM (inactive); in [2], > 100 µM (inactive); in experiment [3] it was > 100 µM (inactive); in experiment [4], 21.1 µM (inactive); in experiment [5], 16.7 µM (inactive); in experiment [6], 25.4 µM (inactive). For the same compound, the GI50 is > 100 µM (inactive) in [15]; > 100 µM (inactive) in [8]; > 100 µM (inactive) in experiment [9]; 34.8 µM (inactive) in experiment [16]; > 100 µM (inactive) in [10]; > 100 µM (inactive) in experiment [11]. Moreover, the GI50 in experiment [12], in experiment [17], in [13] and in [14] was > 100 µM (inactive) in each case.
On to `COc1ccc(C2Cc3cc(OC)c(OC)c(OC)c3C2=O)cc1` (centres undefined), for which the GI50 in experiment [1] was > 100 µM (inactive); in experiment [2] it was 47.3 µM (inactive); in experiment [3] it was > 100 µM (inactive); in experiment [4], > 100 µM (inactive); in experiment [5], > 100 µM (inactive); in experiment [6], > 100 µM (inactive). Besides, the GI50 in experiment [7], in [15], in experiment [8], in experiment [9], in experiment [10] and in experiment [11] was > 100 µM (inactive) each time. The GI50 in experiment [12], in [13] and in [14] was > 100 µM (inactive) in each case.
